Our source for the IC50 and Activity values is ChEMBL document CHEMBL5584297, “Cytotoxic Peptaibols from Trichoderma strigosum” (J Nat Prod, 2024).

For one experiment, the system named is DU-145. Description: Antiproliferative activity against human DU-145 cells assessed as reduction in cell viability incubated for 24 hrs by MTT assay. It counts as functional, cell-based. Particulars: DU-145, 24 h. On the technique in general: Tetrazolium assays rely on reduction of a dye to a coloured formazan, in cell work by metabolically active cells.
For another experiment, the system named is SNU-449. Description: Antiproliferative activity against human SNU-449 cells assessed as reduction in cell viability incubated for 24 hrs by MTT assay. It counts as functional, cell-based. Particulars: SNU-449, 24 h.
Another experiment concerns [Candida] auris. Description: Antifungal activity against Candida auris. It counts as functional, organism-based. The conditions noted are these: Candidozyma auris.
In the next experiment the test system is SK-OV-3. The experiment in a line: Antiproliferative activity against human SK-OV-3 cells assessed as reduction in cell viability incubated for 24 hrs by MTT assay. The conditions noted are these: SK-OV-3, 24 h. It is filed as functional, cell-based.
For the next experiment, the system named is HCT-116. Description: Antiproliferative activity against human HCT-116 cells assessed as reduction in cell viability incubated for 24 hrs by MTT assay. The conditions noted are these: HCT-116, 24 h. It is filed as functional, cell-based.
The next experiment deals with Fusarium oxysporum. The experiment in a line: Antifungal activity against Fusarium oxysporum KCTC 16654. It counts as functional, organism-based.
A further experiment has as its system MDA-MB-231. The experiment in a line: Antiproliferative activity against human MDA-MB-231 cells assessed as reduction in cell viability incubated for 24 hrs by MTT assay. It counts as functional, cell-based. The conditions noted are these: MDA-MB-231, 24 h.
Another experiment concerns Candida albicans. The experiment in a line: Antifungal activity against Candida albicans. It is filed as functional, organism-based.

Active and inactive are the calls of the source. No cut-off for these calls is given here. Square brackets hold non-standard residues; d marks the D form. Peptide text beside a SMILES is read from it. * marks the point of attachment. Leu(ol) = CC(C)C[C@H](N)CO; dIva = CC[C@@](C)(N)C(=O)O; Octanoyl = CCCCCCCC(=O)*; Aib = CC(C)(N)C(=O)O

In the case of `CC(=O)NC(C)(C)C(=O)N[C@@H](CO)C(=O)NC(C)(C)C(=O)NC(C)(C)C(=O)N[C@@H](CC(C)C)C(=O)N[C@@H](CCC(N)=O)C(=O)NC(C)(C)C(=O)NC(C)(C)C(=O)NC(C)(C)C(=O)N[C@@H](CO)C(=O)N[C@H](C(=O)NC(C)(C)C(=O)N1CCC[C@H]1C(=O)N[C@H](C(=O)NC(C)(C)C(=O)NC(C)(C)C(=O)N[C@@H](CCC(N)=O)C(=O)N[C@@H](CCC(N)=O)C(=O)N[C@H](CO)CC(C)C)C(C)C)C(C)C` (Ac-[Aib]S[Aib][Aib]LQ[Aib][Aib][Aib]SV[Aib]PV[Aib][Aib]QQ[Leu(ol)]), the IC50 (commonly the concentration that gives 50% inhibition) in the experiment with DU-145 is 30.9 µM; with SNU-449, 131 µM; in the experiment on SK-OV-3 it was 41.1 µM; with HCT-116, 32.8 µM; with MDA-MB-231, 80.2 µM. Further, the outcome (in experiment [Candida] auris; in the experiment with Fusarium oxysporum; in the experiment with Candida albicans) was inactive.

On to `CCCCCCCC(=O)NCC(=O)N[C@@H](C)C(=O)N[C@@H](CC(C)C)C(=O)NC(C)(C)C(=O)N[C@@H](C)C(=O)N[C@H](C(=O)N[C@H](CO)CC(C)C)[C@@H](C)CC` (Octanoyl-GAL[Aib]AI[Leu(ol)]), for which the IC50 with DU-145 was 25.4 µM; in the experiment with SNU-449 it was > 150 µM; in the experiment with SK-OV-3, 18.7 µM; in the experiment with HCT-116, 27.4 µM; in the experiment with MDA-MB-231, 17.6 µM. Moreover, the outcome (in experiment [Candida] auris; with Fusarium oxysporum; in the experiment with Candida albicans) was inactive.

For the compound `CCCCCCCC(=O)NCC(=O)N[C@@H](C)C(=O)N[C@@H](CC(C)C)C(=O)NC(C)(C)C(=O)N[C@@H](C)C(=O)N[C@@H](CC(C)C)C(=O)N[C@H](CO)CC(C)C` (Octanoyl-GAL[Aib]AL[Leu(ol)]), the IC50 is 13 µM in the experiment with DU-145; 17.3 µM in the experiment with SNU-449; 12.5 µM in the experiment on SK-OV-3; 12 µM with HCT-116; 7.3 µM in the experiment with MDA-MB-231. In addition, the outcome (in experiment [Candida] auris; in the experiment with Fusarium oxysporum; with Candida albicans) was inactive.

Turning to `CCCCCCCC(=O)NCC(=O)N[C@@H](C)C(=O)N[C@@H](CC(C)C)C(=O)N[C@](C)(CC)C(=O)N[C@@H](C)C(=O)N[C@H](C(=O)N[C@H](CO)CC(C)C)[C@@H](C)CC` (Octanoyl-GAL[dIva]AI[Leu(ol)]), the IC50 in the experiment with DU-145 worked out at 4.5 µM; with SNU-449 it was 8.8 µM; in the experiment on SK-OV-3, 6.3 µM; in the experiment with HCT-116, 8 µM; in the experiment with MDA-MB-231, 4.5 µM. Besides, the outcome (in experiment [Candida] auris; in the experiment with Fusarium oxysporum; in the experiment with Candida albicans) was inactive.

Take `CCCCCCCC(=O)NCC(=O)N[C@@H](C)C(=O)N[C@H](C(=O)NC(C)(C)C(=O)N[C@@H](C)C(=O)N[C@@H](CC(C)C)C(=O)N[C@H](CO)CC(C)C)C(C)C` (Octanoyl-GAV[Aib]AL[Leu(ol)]): the IC50 with DU-145 was 31.8 µM; in the experiment on SNU-449, > 150 µM; in the experiment on SK-OV-3 it was 60.7 µM; with HCT-116, > 150 µM; with MDA-MB-231, 25.7 µM. Besides, the outcome (in experiment [Candida] auris; with Fusarium oxysporum; in the experiment with Candida albicans) was inactive.
